Laboratory results published in ChEMBL document CHEMBL1145259, “Arylacetamide kappa opioid receptor agonists with reduced cytochrome P450 2D6 inhibitory activity” (Bioorg Med Chem Lett, 2005).

Key:
CYP2D6 = CYP2D6 (Homo sapiens, UniProt P10635); experiment: Inhibition of cytochrome P450 2D6 activity was measured by the inhibition of HAMC production at the concentration of 10 uM; format: ADME
[1] = molecular target: T1, Delta-type opioid receptor (Homo sapiens, UniProt P41143); experiment: Inhibitory constant against human Opioid receptor delta 1 using [3H]diprenorphine as radio ligand
T1 sequence (P41143 whole entry): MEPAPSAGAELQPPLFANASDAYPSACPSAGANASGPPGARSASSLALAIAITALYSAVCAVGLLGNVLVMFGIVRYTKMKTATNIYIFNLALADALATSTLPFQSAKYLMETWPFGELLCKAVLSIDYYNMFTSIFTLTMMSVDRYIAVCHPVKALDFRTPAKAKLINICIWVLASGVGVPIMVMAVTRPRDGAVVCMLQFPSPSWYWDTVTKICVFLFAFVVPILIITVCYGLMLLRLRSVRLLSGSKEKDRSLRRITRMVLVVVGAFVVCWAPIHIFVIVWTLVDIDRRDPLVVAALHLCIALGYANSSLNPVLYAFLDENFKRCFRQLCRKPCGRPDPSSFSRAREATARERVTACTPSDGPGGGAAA

Mu-type opioid receptor [2] = molecular target: T2, Mu-type opioid receptor (Homo sapiens, UniProt P35372); experiment: Inhibitory constant against human Opioid receptor mu 1 using [3H]diprenorphine as radio ligand
T2 sequence (P35372 whole entry): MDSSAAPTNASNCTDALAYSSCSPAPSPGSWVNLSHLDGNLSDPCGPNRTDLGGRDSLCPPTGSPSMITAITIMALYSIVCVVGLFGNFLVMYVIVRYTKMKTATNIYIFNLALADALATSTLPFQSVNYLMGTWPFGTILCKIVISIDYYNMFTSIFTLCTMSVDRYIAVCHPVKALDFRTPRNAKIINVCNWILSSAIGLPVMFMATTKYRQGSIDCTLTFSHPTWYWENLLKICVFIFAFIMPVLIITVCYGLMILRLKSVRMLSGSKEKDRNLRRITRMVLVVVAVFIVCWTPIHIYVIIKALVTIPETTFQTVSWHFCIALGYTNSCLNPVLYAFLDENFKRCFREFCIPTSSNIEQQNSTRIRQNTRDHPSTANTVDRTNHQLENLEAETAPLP

Cytochrome P450 2D6 = Cytochrome P450 2D6 (Homo sapiens, UniProt P10635); experiment: Inhibition of cytochrome P450 2D6 was determined using MAMC (7-methoxy-4-aminomethyl-coumarin) as substrate; format: ADME
Sequence of Cytochrome P450 2D6 (P10635 whole entry): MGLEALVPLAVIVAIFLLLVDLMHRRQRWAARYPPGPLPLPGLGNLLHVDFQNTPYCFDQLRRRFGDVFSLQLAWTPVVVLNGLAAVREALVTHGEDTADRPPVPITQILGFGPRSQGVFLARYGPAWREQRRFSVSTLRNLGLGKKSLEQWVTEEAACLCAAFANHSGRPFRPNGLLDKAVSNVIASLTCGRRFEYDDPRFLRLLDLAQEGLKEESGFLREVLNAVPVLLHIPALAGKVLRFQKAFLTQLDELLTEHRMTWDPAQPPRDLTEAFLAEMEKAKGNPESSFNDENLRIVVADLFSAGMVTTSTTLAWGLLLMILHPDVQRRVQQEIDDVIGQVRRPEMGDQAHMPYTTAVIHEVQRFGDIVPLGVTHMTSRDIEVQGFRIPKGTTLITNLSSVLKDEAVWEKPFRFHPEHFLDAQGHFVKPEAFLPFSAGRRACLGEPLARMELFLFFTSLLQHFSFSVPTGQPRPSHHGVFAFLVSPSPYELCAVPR

Mu-type opioid receptor [3] = molecular target: T2, Mu-type opioid receptor; experiment: Percent inhibition against human Opioid receptor mu 1 using [3H]diprenorphine as radio ligand; set-up: concentration or dose not given beside the values; settings: concentration not given here
[4] = molecular target: T1, Delta-type opioid receptor; experiment: Percent inhibition against human Opioid receptor delta 1 using [3H]diprenorphine as radio ligand; settings: concentration not given here
[5] = molecular target: T1, Delta-type opioid receptor; experiment: Percent inhibition constant against human Opioid receptor delta 1 using [3H]diprenorphine as radio ligand; settings: concentration not given here

Sequence of CYP2D6 (P10635 whole entry): as above

Row | Compound | Ki [1] [µM] | Ki (Mu-type opioid receptor [2]) [µM] | IC50 (Cytochrome P450 2D6) [µM] | other results
1 | CCCS(=O)(=O)NCc1ccc(CC(=O)N(C)[C@H](CN2CC[C@H](O)C2)c2ccccc2)cc1 | 0.124 | 1.05 |  | inhibition at 10 µM (CYP2D6): 27%
2 | CCCCS(=O)(=O)NCc1ccc(CC(=O)N(C)[C@H](CN2CC[C@H](O)C2)c2ccccc2)cc1 | 0.167 | 1.05 | 7.89 | 
3 | CN(C(=O)Cc1ccc(CCCNS(C)(=O)=O)cc1)[C@H](CN1CC[C@H](O)C1)c1ccccc1 |  |  |  | inhibition at 10 µM (CYP2D6): 46%
4 | CCS(=O)(=O)NCc1ccc(CC(=O)N(C)[C@H](CN2CC[C@H](O)C2)c2ccccc2)cc1 |  | 1.03 |  | inhibition at 10 µM (CYP2D6): 31%
5 | CN(C(=O)Cc1ccc(CNS(C)(=O)=O)cc1)[C@H](CN1CCCC1)c1ccccc1 | 1.13 | 0.44 |  | inhibition at 10 µM (CYP2D6): 45%
6 | CN(C(=O)Cc1ccc(Cl)c(Cl)c1)[C@H](CN1CCCC1)c1ccccc1 [ICI-199,441] |  |  | 0.026 | 
7 | CN(C(=O)Cc1ccc(NS(C)(=O)=O)cc1)[C@H](CN1CC[C@H](O)C1)c1ccccc1 | 0.177 | 0.105 | 5.53 | 
8 | CN(C(=O)Cc1ccc(CNS(=O)(=O)Cc2cccs2)cc1)[C@H](CN1CC[C@H](O)C1)c1ccccc1 | 0.055 | 1.06 | 4.78 | 
9 | CC(=O)NCc1ccccc1CC(=O)N(C)[C@H](CN1CCCC1)c1ccccc1 | 0.9 | 1.24 | 0.035 | 
10 | CN(C(=O)Cc1ccc(CNS(=O)(=O)c2ccc(F)cc2)cc1)[C@H](CN1CC[C@H](O)C1)c1ccccc1 | 0.063 | 1.08 | 5.79 | 
11 | CC(=O)NCc1cccc(CC(=O)N(C)[C@H](CN2CCCC2)c2ccccc2)c1 |  |  | 0.6 | inhibition (Mu-type opioid receptor [3]): 21%; inhibition [4]: 15%
12 | CNC(=O)NCc1ccc(CC(=O)N(C)[C@H](CN2CCCC2)c2ccccc2)cc1 | 1.3 |  | 1.22 | inhibition (Mu-type opioid receptor [3]): 43%
13 | CN(C(=O)Cc1ccc(CNS(=O)(=O)Cc2ccccc2)cc1)[C@H](CN1CC[C@H](O)C1)c1ccccc1 | 0.173 |  | 5.7 | 
14 | CN(C(=O)Cc1ccc(CNS(C)(=O)=O)cc1)[C@H](CN1CC[C@H](O)C1)c1ccccc1 | 0.167 | 0.151 |  | inhibition at 10 µM (CYP2D6): 25%
15 | CN(C(=O)Cc1ccc(CN)cc1)[C@H](CN1CCCC1)c1ccccc1 |  |  | 0.326 | inhibition (Mu-type opioid receptor [3]): 41%; inhibition [4]: 17%
16 | CC(C)S(=O)(=O)NCc1ccc(CC(=O)N(C)[C@H](CN2CC[C@H](O)C2)c2ccccc2)cc1 |  |  |  | inhibition at 10 µM (CYP2D6): 27%
17 | CN(C(=O)Cc1ccccc1CN)[C@H](CN1CCCC1)c1ccccc1 |  |  | 0.018 | inhibition [5]: 37%; inhibition (Mu-type opioid receptor [3]): 29%
18 | CN(C(=O)Cc1ccccc1)[C@H](CN1CCCC1)c1ccccc1 |  |  | 0.046 | 
19 | CN(C(=O)Cc1ccc(CCNS(C)(=O)=O)cc1)[C@H](CN1CC[C@H](O)C1)c1ccccc1 | 0.107 |  |  | inhibition at 10 µM (CYP2D6): 48%
20 | CN(C(=O)Cc1ccc2c(c1)CN(S(C)(=O)=O)C2)[C@H](CN1CCCC1)c1ccccc1 | 1.5 | 0.074 | 1.04 | 
21 | Cc1ccc(S(=O)(=O)NCc2ccc(CC(=O)N(C)[C@H](CN3CC[C@H](O)C3)c3ccccc3)cc2)cc1 | 0.027 |  | 5.65 | 
22 | CC(=O)NCc1ccc(CC(=O)N(C)[C@H](CN2CCCC2)c2ccccc2)cc1 |  |  | 1.11 | inhibition (Mu-type opioid receptor [3]): 26%; inhibition [4]: 0%
23 | CN(C(=O)Cc1ccc(CNS(=O)(=O)c2ccccc2)cc1)[C@H](CN1CC[C@H](O)C1)c1ccccc1 |  |  | 4.34 | 
24 | CN(C(=O)Cc1ccccc1CNS(C)(=O)=O)[C@H](CN1CCCC1)c1ccccc1 | 0.898 | 0.57 | 0.295 | 
25 | CN(C(=O)Cc1cccc(CN)c1)[C@H](CN1CCCC1)c1ccccc1 |  | 2.3 | 0.107 | inhibition [4]: 1.4%
26 | CN(C(=O)Cc1cccc(CNS(C)(=O)=O)c1)[C@H](CN1CCCC1)c1ccccc1 |  |  | 1.82 | 
